ChEMBL document CHEMBL2380242, “Discovery of novel orally bioavailable GPR40 agonists” (Bioorg Med Chem Lett, 2013)
Active and inactive are the calls of the source. The rule behind the calls is not given here.

Key:
[1] = Plasma clearance in rat at 5 mg/kg, po; assay type: ADME, organism-based; parameters: dose 5 mg/kg, route oral
Cynomolgus monkey = assay: Volume of distribution in cynomolgus monkey at 6 mg/kg, po; assay type: ADME, organism-based, Macaca fascicularis; parameters: dose 6 mg/kg, route oral; details: in vivo
[2] = Cmax in cynomolgus monkey at 6 mg/kg, po; assay type: ADME, organism-based, Macaca fascicularis; parameters: dose 6 mg/kg, route oral; details: in vivo
[3] = Half life in rat at 5 mg/kg, po; assay type: ADME, organism-based; parameters: dose 5 mg/kg, route oral; details: in vivo
Rattus norvegicus = assay: Volume of distribution in rat at 5 mg/kg, po; assay type: ADME, organism-based; parameters: dose 5 mg/kg, route oral; details: in vivo
[4] = Half life in cynomolgus monkey at 6 mg/kg, po; assay type: ADME, organism-based, Macaca fascicularis; parameters: dose 6 mg/kg, route oral; details: in vivo
[5] = Cmax in rat at 5 mg/kg, po; assay type: ADME, organism-based; parameters: dose 5 mg/kg, route oral; details: in vivo
[6] = molecular target: Free fatty acid receptor 1 (Rattus norvegicus) (UniProt Q8K3T4); assay: Agonist activity at GPR40 in rat INS-1 cells assessed as glucose-stimulated insulin secretion relative to TAK-875; assay type: cell-based; details: INS1
[7] = Plasma clearance in cynomolgus monkey at 6 mg/kg, po; assay type: ADME, organism-based, Macaca fascicularis; parameters: dose 6 mg/kg, route oral
[8] = molecular target: T1, Free fatty acid receptor 1 (Homo sapiens, UniProt O14842); assay: Agonist activity at human GPR40 transfected in CHO cells by calcium flux assay; assay type: functional, cell-based
[9] = Oral bioavailability in rat at 5 mg/kg; assay type: ADME, organism-based; details: in vivo
[10] = molecular target: T1, Free fatty acid receptor 1; assay: Agonist activity at human GPR40 transfected in CHO cells by calcium flux assay relative to TAK-875; assay type: functional, cell-based
[11] = Half life in beagle dog at 1 mg/kg, po; assay type: ADME, organism-based, Canis lupus familiaris; parameters: dose 1 mg/kg, route oral; details: in vivo
Mus musculus [12] = assay: Antidiabetic activity in high fat feasted ICR mouse assessed as inhibition of blood glucose excursion at 50 mg/kg, po administered 15 mins prior to dextrose challenge measured for 120 mins by OGTT relative to control; assay type: functional
[13] = AUC in beagle dog at 1 mg/kg, po; assay type: ADME, organism-based, Canis lupus familiaris; parameters: dose 1 mg/kg, route oral; details: plasma
[14] = AUC in rat at 5 mg/kg, po; assay type: ADME, organism-based; parameters: dose 5 mg/kg, route oral; details: plasma
[15] = Cmax in beagle dog at 1 mg/kg, po; assay type: ADME, organism-based, Canis lupus familiaris; parameters: dose 1 mg/kg, route oral; details: in vivo
[16] = AUC in cynomolgus monkey at 6 mg/kg, po; assay type: ADME, organism-based, Macaca fascicularis; parameters: dose 6 mg/kg, route oral; details: plasma
[17] = molecular target: T2, Free fatty acid receptor 3 (Homo sapiens) (UniProt O14843); assay: Agonist activity at GPR41 (unknown origin) up to 10 uM
T2 sequence (whole entry): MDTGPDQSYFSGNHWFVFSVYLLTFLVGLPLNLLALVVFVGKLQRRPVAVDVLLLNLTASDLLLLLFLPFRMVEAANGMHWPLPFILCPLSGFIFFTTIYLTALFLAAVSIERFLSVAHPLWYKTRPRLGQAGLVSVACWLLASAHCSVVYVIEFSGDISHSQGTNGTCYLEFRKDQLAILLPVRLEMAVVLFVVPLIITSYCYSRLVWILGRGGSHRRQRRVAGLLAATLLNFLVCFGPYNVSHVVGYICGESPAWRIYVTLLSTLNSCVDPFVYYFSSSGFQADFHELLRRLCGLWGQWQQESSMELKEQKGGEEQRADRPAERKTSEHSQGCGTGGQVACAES

Canis familiaris = assay: Volume of distribution in beagle dog at 1 mg/kg, po; assay type: ADME, organism-based, Canis lupus familiaris; parameters: dose 1 mg/kg, route oral; details: in vivo
[18] = molecular target: T3, Free fatty acid receptor 4 (Homo sapiens) (UniProt Q5NUL3); assay: Agonist activity at GPR120 (unknown origin) up to 10 uM
T3 sequence (whole entry): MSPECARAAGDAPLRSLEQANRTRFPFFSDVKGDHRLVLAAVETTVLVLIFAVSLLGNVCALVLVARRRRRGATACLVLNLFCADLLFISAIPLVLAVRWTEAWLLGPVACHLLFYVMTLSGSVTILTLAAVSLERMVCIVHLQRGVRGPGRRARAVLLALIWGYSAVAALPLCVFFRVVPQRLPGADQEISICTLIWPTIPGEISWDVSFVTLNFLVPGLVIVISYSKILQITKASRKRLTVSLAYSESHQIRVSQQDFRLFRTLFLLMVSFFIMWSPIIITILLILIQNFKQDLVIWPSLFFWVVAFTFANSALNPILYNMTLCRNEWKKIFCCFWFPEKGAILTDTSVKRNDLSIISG

[19] = molecular target: T4, Free fatty acid receptor 2 (Homo sapiens) (UniProt O15552); assay: Agonist activity at GPR43 (unknown origin) up to 10 uM
T4 sequence (whole entry): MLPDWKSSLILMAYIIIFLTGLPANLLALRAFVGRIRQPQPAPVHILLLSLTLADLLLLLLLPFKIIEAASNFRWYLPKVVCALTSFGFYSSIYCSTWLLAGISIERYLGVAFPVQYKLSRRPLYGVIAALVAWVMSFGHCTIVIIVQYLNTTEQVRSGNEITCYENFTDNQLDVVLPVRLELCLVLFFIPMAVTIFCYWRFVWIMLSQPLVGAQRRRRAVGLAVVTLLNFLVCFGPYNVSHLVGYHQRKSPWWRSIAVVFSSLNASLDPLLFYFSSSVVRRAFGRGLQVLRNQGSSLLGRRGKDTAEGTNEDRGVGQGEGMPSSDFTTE

[20] = Plasma clearance in beagle dog at 1 mg/kg, po; assay type: ADME, organism-based, Canis lupus familiaris; parameters: dose 1 mg/kg, route oral
[21] = molecular target: Free fatty acid receptor 1 (Rattus norvegicus, UniProt Q8K3T4); assay: Agonist activity at GPR40 in rat INS-1 cells assessed as glucose-stimulated insulin secretion; assay type: cell-based, INS1
[22] = Lipophilicity, log D of the compound; assay type: physicochemical; details: octanol/water
[23] = Inhibition of CYP450 (unknown origin); assay type: ADME, Homo sapiens
Rhesus monkey [24] = assay: Antidiabetic activity in obese type 2 diabetic rhesus monkey model assessed as inhibition of blood glucose excursion at 6 mg/kg, po administered 1 to 2 hrs prior to dextrose challenge measured for 120 mins by IVGTT relative to control; assay type: functional; details: Macaca mulatta
Rhesus monkey [25] = assay: Antidiabetic activity in obese type 2 diabetic rhesus monkey model assessed as inhibition of blood glucose excursion at 6 mg/kg, po administered 1 to 2 hrs prior to dextrose challenge measured for 60 mins by IVGTT relative to control; assay type: functional; details: Macaca mulatta
Rhesus monkey [26] = assay: Antidiabetic activity in obese type 2 diabetic rhesus monkey model assessed as inhibition of blood glucose excursion at 20 mg/kg, po administered 1 to 2 hrs prior to dextrose challenge measured for 120 mins by IVGTT relative to control; assay type: functional; details: Macaca mulatta
Rhesus monkey [27] = assay: Antidiabetic activity in obese type 2 diabetic rhesus monkey model assessed as inhibition of blood glucose excursion at 20 mg/kg, po administered 1 to 2 hrs prior to dextrose challenge measured for 60 mins by IVGTT relative to control; assay type: functional; details: Macaca mulatta
Mus musculus [28] = assay: Antidiabetic activity in high fat feasted ICR mouse assessed as reduction of blood glucose excursion at 20 mg/kg, po administered 15 mins prior to dextrose challenge measured for 120 mins by OGTT; assay type: functional, organism-based; parameters: dose 20 mg/kg
Mus musculus [29] = assay: Antidiabetic activity in high fat feasted ICR mouse assessed as inhibition of blood glucose excursion administered 15 mins prior to dextrose challenge measured for 120 mins by OGTT relative to control; assay type: functional

T1 sequence (O14842 whole entry): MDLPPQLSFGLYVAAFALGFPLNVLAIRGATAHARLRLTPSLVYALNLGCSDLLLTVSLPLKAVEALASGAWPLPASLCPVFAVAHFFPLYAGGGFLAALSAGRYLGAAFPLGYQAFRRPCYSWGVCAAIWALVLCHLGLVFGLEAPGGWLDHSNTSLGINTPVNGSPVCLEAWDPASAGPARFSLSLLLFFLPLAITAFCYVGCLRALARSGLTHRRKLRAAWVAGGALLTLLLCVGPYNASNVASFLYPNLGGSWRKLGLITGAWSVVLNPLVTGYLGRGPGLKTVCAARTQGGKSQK
Chain of Free fatty acid receptor 1 (Rattus norvegicus) (Q8K3T4 whole entry): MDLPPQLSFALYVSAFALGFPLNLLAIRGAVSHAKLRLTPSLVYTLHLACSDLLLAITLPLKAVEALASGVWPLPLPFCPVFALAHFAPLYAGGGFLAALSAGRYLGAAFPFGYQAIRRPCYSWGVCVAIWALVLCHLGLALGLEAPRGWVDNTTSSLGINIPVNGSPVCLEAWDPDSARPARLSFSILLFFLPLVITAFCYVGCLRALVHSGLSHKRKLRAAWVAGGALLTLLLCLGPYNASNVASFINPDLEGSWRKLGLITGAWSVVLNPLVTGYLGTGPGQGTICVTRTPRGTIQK
Chain of Free fatty acid receptor 1 (Rattus norvegicus, UniProt Q8K3T4) (Q8K3T4 whole entry): as above

Row | Structure (SMILES) | CL/F [1] | Vd (Cynomolgus monkey) | Cmax [2] | half-life [3] | Vd (Rattus norvegicus) | half-life [4] | Cmax [5] | Emax [6] | CL/F [7] | EC50 [8] | Emax [10] | half-life [11] | inhibition in vivo at 50 mg/kg (Mus musculus [12]) | AUC [13] | AUC [14] | Cmax [15] | AUC [16] | Activity [17] | Vd (Canis familiaris) | Activity [18] | further results
1 | O=C(O)C[C@@H]1COc2cc3c(cc21)OC[C@@H](c1cccc(C(F)(F)F)c1)O3 | 0.167 mL/min/kg | 2.38 L/kg | 7700 ng/mL | 16.1 h | 0.23 L/kg | 16.4 h | 19400 ng/mL | 43.6% | 1.67 mL/min/kg | 11.3 nM | 99.5% | 19.1 h | 13.3% | 47.4 µg·h/mL | 427 µg·h/mL | 2580 ng/mL | 54.7 µg·h/mL |  |  |  | bioavailability [9]: 100%
2 | O=C(O)C[C@@H]1COc2cc3c(cc21)OC[C@@H](c1cccc(Br)c1)O3 | 0.117 mL/min/kg | 1.02 L/kg | 5360 ng/mL | 26.8 h | 0.25 L/kg | 18 h | 17800 ng/mL | 40% | 0.667 mL/min/kg | 13.5 nM | 120% | 26.4 h | 4.9% | 30.6 µg·h/mL | 530 µg·h/mL | 2270 ng/mL | 136 µg·h/mL | inactive | 0.93 L/kg | inactive | Activity [19]: inactive; CL/F [20]: 0.5 mL/min/kg; EC50 [21]: 77 nM; logD [22]: < 3; IC50 [23]: > 50000 nM; inhibition in vivo at 6 mg/kg (Rhesus monkey [24]): 24.4%; inhibition in vivo at 6 mg/kg (Rhesus monkey [25]): 32.1%
3 | O=C(O)C[C@@H]1COc2cc3c(cc21)OC[C@@H](c1cccc(Cl)c1)O3 | 0.0833 mL/min/kg | 0.85 L/kg | 19700 ng/mL | 27.5 h | 0.21 L/kg | 12.9 h | 22000 ng/mL | 36.8% | 0.833 mL/min/kg | 34.2 nM | 87% | 21.1 h | 11% | 35.6 µg·h/mL | 666 µg·h/mL | 2670 ng/mL | 126 µg·h/mL | inactive | 0.71 L/kg | inactive | Activity [19]: inactive; CL/F [20]: 0.333 mL/min/kg; inhibition in vivo at 20 mg/kg (Rhesus monkey [26]): 13.2%; logD [22]: < 3; IC50 [23]: > 50000 nM; inhibition in vivo at 6 mg/kg (Rhesus monkey [24]): 10.7%; inhibition in vivo at 20 mg/kg (Rhesus monkey [27]): 16.4%; inhibition in vivo at 6 mg/kg (Rhesus monkey [25]): 7.71%
4 | Cc1cc(OCCCS(C)(=O)=O)cc(C)c1-c1cccc(COc2ccc3c(c2)OC[C@H]3CC(=O)O)c1 |  |  |  |  |  |  |  |  |  |  |  |  |  |  |  |  |  |  |  |  | Activity (Mus musculus [28]): Active; EC50 [21]: 93 nM; inhibition in vivo at 20 mg/kg (Rhesus monkey [26]): 15%; inhibition in vivo at 20 mg/kg (Rhesus monkey [27]): 14.7%
5 | Cc1ccccc1-c1cccc([C@H]2COc3cc4c(cc3O2)OC[C@H]4CC(=O)O)c1 |  |  |  |  |  |  |  |  |  | 19.1 nM | 91% |  |  |  |  |  |  |  |  |  | inhibition (INH) (Mus musculus [29]): 9.7%
